Data: ChEMBL document CHEMBL3046568, “Synthesis, antimicrobial and DNA cleavage studies of some 4-aryloxymethylcoumarins obtained by reaction of 4-bromomethylcoumarins with bidentate nucleophiles” (2012)
In brackets after ≈: the same amount, converted by molar mass. Activity calls are given as the source filed them. The calls are words filed in the database; no cut-off is given here.

Columns and labels:
Klebsiella pneumoniae = assay: Antibacterial activity against Klebsiella pneumoniae MTCC 3384 after 24 hr by disk diffusion method; format: functional; conditions: for MIC: Klebsiella pneumoniae, MTCC 3384, 24 h
Aspergillus niger [1] = assay: Induction of Aspergillus niger DNA cleavage at 50 ug after 2 hr by agarose gel electrophoresis
Aspergillus niger [2] = assay: Antifungal activity against Aspergillus niger after 3 to 4 days by serial dilution method; format: functional; conditions: for MIC: Aspergillus niger
Mucor fuscus = assay: Antifungal activity against Mucor fuscus after 3 to 4 days by serial dilution method; format: functional; conditions: for MIC: Mucor fuscus
Pseudomonas aeruginosa = assay: Antibacterial activity against Pseudomonas aeruginosa MTCC 1034 after 24 hr by disk diffusion method; format: functional; conditions: for MIC: Pseudomonas aeruginosa, MTCC 1034, 24 h
Enterococcus faecalis = assay: Antibacterial activity against Enterococcus faecalis MTCC 3382 after 24 hr by disk diffusion method; format: functional; conditions: for MIC: Enterococcus faecalis, MTCC 3382, 24 h
Aspergillus niger [3] = assay: Induction of Aspergillus niger DNA cleavage at 25 ug after 2 hr by agarose gel electrophoresis
Escherichia coli [4] = assay: Induction of Escherichia coli MTCC 1089 DNA cleavage at 50 ug after 2 hr by agarose gel electrophoresis
Staphylococcus aureus [5] = assay: Induction of Staphylococcus aureus MTCC 3160 DNA cleavage at 50 ug after 2 hr by agarose gel electrophoresis
Escherichia coli [6] = assay: Antibacterial activity against Escherichia coli MTCC 1089 after 24 hr by disk diffusion method; format: functional; conditions: for MIC: Escherichia coli, MTCC 1089, 24 h
Bacillus subtilis = assay: Antibacterial activity against Bacillus subtilis MTCC 297 after 24 hr by disk diffusion method; format: functional; conditions: for MIC: Bacillus subtilis, MTCC 297, 24 h
Fusarium oxysporum = assay: Antifungal activity against Fusarium oxysporum after 3 to 4 days by serial dilution method; format: functional; conditions: for MIC: Fusarium oxysporum
Candida albicans = assay: Antifungal activity against Candida albicans after 3 to 4 days by serial dilution method; format: functional; conditions: for MIC: Candida albicans
Aspergillus fumigatus = assay: Antifungal activity against Aspergillus fumigatus after 3 to 4 days by serial dilution method; format: functional; conditions: for MIC: Aspergillus fumigatus
Staphylococcus aureus [7] = assay: Antibacterial activity against Staphylococcus aureus MTCC 3160 after 24 hr by disk diffusion method; format: functional; conditions: for MIC: Staphylococcus aureus, MTCC 3160, 24 h
Penicillium chrysogenum = assay: Antifungal activity against Penicillium chrysogenum after 3 to 4 days by serial dilution method; format: functional; conditions: for MIC: Penicillium chrysogenum
Escherichia coli [8] = assay: Induction of Escherichia coli MTCC 1089 DNA cleavage at 25 ug after 2 hr by agarose gel electrophoresis
Staphylococcus aureus [9] = assay: Induction of Staphylococcus aureus MTCC 3160 DNA cleavage at 25 ug after 2 hr by agarose gel electrophoresis

MIC (Klebsiella pneumoniae)	Activity (Aspergillus niger [1])	MIC (Aspergillus niger [2])	MIC (Mucor fuscus)	MIC (Pseudomonas aeruginosa)	MIC (Enterococcus faecalis)	Activity (Escherichia coli [4])	Activity (Staphylococcus aureus [5])	MIC (Escherichia coli [6])	MIC (Bacillus subtilis)	MIC (Candida albicans)	SMILES	inhibition zone (IZ) (Klebsiella pneumoniae)	inhibition zone (IZ) (Aspergillus niger [2])	inhibition zone (IZ) (Mucor fuscus)	inhibition zone (IZ) (Pseudomonas aeruginosa)	inhibition zone (IZ) (Enterococcus faecalis)	inhibition zone (IZ) (Escherichia coli [6])	inhibition zone (IZ) (Bacillus subtilis)	inhibition zone (IZ) (Fusarium oxysporum)	inhibition zone (IZ) (Candida albicans)	further results
6.25 mg/L (≈ 18.2 µM)	Active	6.25 mg/L (≈ 18.2 µM)	6.25 mg/L (≈ 18.2 µM)	6.25 mg/L (≈ 18.2 µM)	6.25 mg/L (≈ 18.2 µM)	Active	Active	12.5 mg/L (≈ 36.4 µM)	6.25 mg/L (≈ 18.2 µM)	6.25 mg/L (≈ 18.2 µM)	CC(=O)Nc1cccc(OCc2cc(=O)oc3ccc(Cl)cc23)c1	19 mm	22 mm	22 mm	23 mm	23 mm	16 mm	20 mm	16 mm	20 mm	Activity (Aspergillus niger [3]): Active; MIC (Fusarium oxysporum): 12.5 mg/L (≈ 36.4 µM); inhibition zone (IZ) (Aspergillus fumigatus): 22 mm; MIC (Aspergillus fumigatus): 6.25 mg/L (≈ 18.2 µM); inhibition zone (IZ) (Staphylococcus aureus [7]): 21 mm; MIC (Staphylococcus aureus [7]): 6.25 mg/L (≈ 18.2 µM); inhibition zone (IZ) (Penicillium chrysogenum): 23 mm; MIC (Penicillium chrysogenum): 6.25 mg/L (≈ 18.2 µM)
6.25 mg/L (≈ 21 µM)	Active	6.25 mg/L (≈ 21 µM)	6.25 mg/L (≈ 21 µM)	6.25 mg/L (≈ 21 µM)	6.25 mg/L (≈ 21 µM)	Active	Active	12.5 mg/L (≈ 41.9 µM)	6.25 mg/L (≈ 21 µM)	6.25 mg/L (≈ 21 µM)	COc1ccc2oc(=O)cc(COc3cccc(O)c3)c2c1	21 mm	20 mm	19 mm	25 mm	21 mm	18 mm	18 mm	16 mm	19 mm	Activity (Escherichia coli [8]): Active; MIC (Fusarium oxysporum): 12.5 mg/L (≈ 41.9 µM); inhibition zone (IZ) (Aspergillus fumigatus): 17 mm; MIC (Aspergillus fumigatus): 12.5 mg/L (≈ 41.9 µM); inhibition zone (IZ) (Staphylococcus aureus [7]): 20 mm; MIC (Staphylococcus aureus [7]): 6.25 mg/L (≈ 21 µM); inhibition zone (IZ) (Penicillium chrysogenum): 20 mm; MIC (Penicillium chrysogenum): 6.25 mg/L (≈ 21 µM)
6.25 mg/L (≈ 18.4 µM)	Active	6.25 mg/L (≈ 18.4 µM)	6.25 mg/L (≈ 18.4 µM)	6.25 mg/L (≈ 18.4 µM)	6.25 mg/L (≈ 18.4 µM)	Active	Active	12.5 mg/L (≈ 36.8 µM)	6.25 mg/L (≈ 18.4 µM)	6.25 mg/L (≈ 18.4 µM)	COc1ccc2oc(=O)cc(COc3cccc(NC(C)=O)c3)c2c1	21 mm	21 mm	21 mm	25 mm	20 mm	17 mm	19 mm	16 mm	19 mm	Activity (Escherichia coli [8]): Active; MIC (Fusarium oxysporum): 12.5 mg/L (≈ 36.8 µM); inhibition zone (IZ) (Aspergillus fumigatus): 21 mm; MIC (Aspergillus fumigatus): 6.25 mg/L (≈ 18.4 µM); inhibition zone (IZ) (Staphylococcus aureus [7]): 19 mm; MIC (Staphylococcus aureus [7]): 6.25 mg/L (≈ 18.4 µM); inhibition zone (IZ) (Penicillium chrysogenum): 20 mm; MIC (Penicillium chrysogenum): 6.25 mg/L (≈ 18.4 µM)

The remaining lines, values behind:

SMILES	MIC (Klebsiella pneumoniae)	Activity (Aspergillus niger [1])	MIC (Aspergillus niger [2])	MIC (Mucor fuscus)	MIC (Pseudomonas aeruginosa)	MIC (Enterococcus faecalis)	Activity (Escherichia coli [4])	Activity (Staphylococcus aureus [5])	MIC (Escherichia coli [6])	MIC (Bacillus subtilis)	MIC (Candida albicans)	inhibition zone (IZ) (Klebsiella pneumoniae)	inhibition zone (IZ) (Aspergillus niger [2])	inhibition zone (IZ) (Mucor fuscus)	inhibition zone (IZ) (Pseudomonas aeruginosa)	inhibition zone (IZ) (Enterococcus faecalis)	inhibition zone (IZ) (Escherichia coli [6])	inhibition zone (IZ) (Bacillus subtilis)	inhibition zone (IZ) (Fusarium oxysporum)	inhibition zone (IZ) (Candida albicans)	further results
CCN(CC)c1cccc(OCc2cc(=O)oc3ccc(Cl)cc23)c1	6.25 mg/L (≈ 17.5 µM)	Active	6.25 mg/L (≈ 17.5 µM)	6.25 mg/L (≈ 17.5 µM)	6.25 mg/L (≈ 17.5 µM)	6.25 mg/L (≈ 17.5 µM)	Active	Active	12.5 mg/L (≈ 34.9 µM)	6.25 mg/L (≈ 17.5 µM)	6.25 mg/L (≈ 17.5 µM)	19 mm	22 mm	21 mm	25 mm	22 mm	15 mm	20 mm	16 mm	18 mm	Activity (Aspergillus niger [3]): Active; MIC (Fusarium oxysporum): 12.5 mg/L (≈ 34.9 µM); inhibition zone (IZ) (Aspergillus fumigatus): 22 mm; MIC (Aspergillus fumigatus): 6.25 mg/L (≈ 17.5 µM); inhibition zone (IZ) (Staphylococcus aureus [7]): 21 mm; MIC (Staphylococcus aureus [7]): 6.25 mg/L (≈ 17.5 µM); inhibition zone (IZ) (Penicillium chrysogenum): 23 mm; MIC (Penicillium chrysogenum): 6.25 mg/L (≈ 17.5 µM)
COc1ccc2oc(=O)cc(COc3cccc(OCc4cc(=O)oc5ccc(OC)cc45)c3)c2c1	6.25 mg/L (≈ 12.8 µM)	Active	12.5 mg/L (≈ 25.7 µM)	6.25 mg/L (≈ 12.8 µM)	6.25 mg/L (≈ 12.8 µM)	6.25 mg/L (≈ 12.8 µM)	Active	Active	12.5 mg/L (≈ 25.7 µM)	6.25 mg/L (≈ 12.8 µM)	6.25 mg/L (≈ 12.8 µM)	20 mm	18 mm	20 mm	24 mm	21 mm	17 mm	18 mm	15 mm	17 mm	Activity (Escherichia coli [8]): Active; MIC (Fusarium oxysporum): 12.5 mg/L (≈ 25.7 µM); inhibition zone (IZ) (Aspergillus fumigatus): 18 mm; MIC (Aspergillus fumigatus): 12.5 mg/L (≈ 25.7 µM); inhibition zone (IZ) (Staphylococcus aureus [7]): 19 mm; MIC (Staphylococcus aureus [7]): 6.25 mg/L (≈ 12.8 µM); inhibition zone (IZ) (Penicillium chrysogenum): 17 mm; MIC (Penicillium chrysogenum): 12.5 mg/L (≈ 25.7 µM)
O=c1cc(COc2cccc(OCc3cc(=O)oc4ccc(Cl)cc34)c2)c2cc(Cl)ccc2o1	6.25 mg/L (≈ 12.6 µM)	Active	6.25 mg/L (≈ 12.6 µM)	6.25 mg/L (≈ 12.6 µM)	6.25 mg/L (≈ 12.6 µM)	6.25 mg/L (≈ 12.6 µM)	Active	Active	12.5 mg/L (≈ 25.2 µM)	6.25 mg/L (≈ 12.6 µM)	6.25 mg/L (≈ 12.6 µM)	18 mm	24 mm	22 mm	22 mm	23 mm	15 mm	19 mm	16 mm	19 mm	Activity (Aspergillus niger [3]): Active; MIC (Fusarium oxysporum): 12.5 mg/L (≈ 25.2 µM); inhibition zone (IZ) (Aspergillus fumigatus): 22 mm; MIC (Aspergillus fumigatus): 6.25 mg/L (≈ 12.6 µM); inhibition zone (IZ) (Staphylococcus aureus [7]): 20 mm; MIC (Staphylococcus aureus [7]): 6.25 mg/L (≈ 12.6 µM); inhibition zone (IZ) (Penicillium chrysogenum): 20 mm; MIC (Penicillium chrysogenum): 6.25 mg/L (≈ 12.6 µM)
O=c1cc(COc2cccc(O)c2)c2cc(Cl)ccc2o1	6.25 mg/L (≈ 20.6 µM)	Active	6.25 mg/L (≈ 20.6 µM)	6.25 mg/L (≈ 20.6 µM)	6.25 mg/L (≈ 20.6 µM)	6.25 mg/L (≈ 20.6 µM)	Active	Active	12.5 mg/L (≈ 41.3 µM)	6.25 mg/L (≈ 20.6 µM)	6.25 mg/L (≈ 20.6 µM)	19 mm	24 mm	21 mm	24 mm	22 mm	17 mm	20 mm	17 mm	20 mm	Activity (Staphylococcus aureus [9]): Active; Activity (Aspergillus niger [3]): Active; MIC (Fusarium oxysporum): 12.5 mg/L (≈ 41.3 µM); inhibition zone (IZ) (Aspergillus fumigatus): 21 mm; MIC (Aspergillus fumigatus): 6.25 mg/L (≈ 20.6 µM); inhibition zone (IZ) (Staphylococcus aureus [7]): 21 mm; MIC (Staphylococcus aureus [7]): 6.25 mg/L (≈ 20.6 µM); inhibition zone (IZ) (Penicillium chrysogenum): 22 mm; MIC (Penicillium chrysogenum): 6.25 mg/L (≈ 20.6 µM)
CCN(CC)c1cccc(OCc2cc(=O)oc3ccc(OC)cc23)c1	6.25 mg/L (≈ 17.7 µM)	Active	6.25 mg/L (≈ 17.7 µM)	6.25 mg/L (≈ 17.7 µM)	6.25 mg/L (≈ 17.7 µM)	6.25 mg/L (≈ 17.7 µM)	Active	Active	12.5 mg/L (≈ 35.4 µM)	6.25 mg/L (≈ 17.7 µM)	6.25 mg/L (≈ 17.7 µM)	20 mm	20 mm	19 mm	25 mm	20 mm	17 mm	18 mm	15 mm	17 mm	Activity (Escherichia coli [8]): Active; inhibition zone (IZ) (Aspergillus fumigatus): 19 mm; MIC (Aspergillus fumigatus): 6.25 mg/L (≈ 17.7 µM); inhibition zone (IZ) (Staphylococcus aureus [7]): 20 mm; MIC (Staphylococcus aureus [7]): 6.25 mg/L (≈ 17.7 µM); inhibition zone (IZ) (Penicillium chrysogenum): 23 mm; MIC (Penicillium chrysogenum): 6.25 mg/L (≈ 17.7 µM)
O=c1cc(COc2cccc(OCc3cc(=O)oc4c3ccc3ccccc34)c2)c2ccc3ccccc3c2o1	6.25 mg/L (≈ 11.9 µM)	inactive	12.5 mg/L (≈ 23.7 µM)	25 mg/L (≈ 47.5 µM)	12.5 mg/L (≈ 23.7 µM)	25 mg/L (≈ 47.5 µM)	inactive	inactive	25 mg/L (≈ 47.5 µM)	25 mg/L (≈ 47.5 µM)	12.5 mg/L (≈ 23.7 µM)	16 mm	15 mm	14 mm	17 mm	12 mm	12 mm	11 mm	14 mm	13 mm	MIC (Fusarium oxysporum): 25 mg/L (≈ 47.5 µM); inhibition zone (IZ) (Aspergillus fumigatus): 15 mm; MIC (Aspergillus fumigatus): 12.5 mg/L (≈ 23.7 µM); inhibition zone (IZ) (Staphylococcus aureus [7]): 11 mm; MIC (Staphylococcus aureus [7]): 25 mg/L (≈ 47.5 µM); inhibition zone (IZ) (Penicillium chrysogenum): 14 mm; MIC (Penicillium chrysogenum): 25 mg/L (≈ 47.5 µM)
